Target: T1, mPDE10A7 (Mus musculus, UniProt Q8CA95)
T1 sequence (Q8CA95 446-763 limits assumed): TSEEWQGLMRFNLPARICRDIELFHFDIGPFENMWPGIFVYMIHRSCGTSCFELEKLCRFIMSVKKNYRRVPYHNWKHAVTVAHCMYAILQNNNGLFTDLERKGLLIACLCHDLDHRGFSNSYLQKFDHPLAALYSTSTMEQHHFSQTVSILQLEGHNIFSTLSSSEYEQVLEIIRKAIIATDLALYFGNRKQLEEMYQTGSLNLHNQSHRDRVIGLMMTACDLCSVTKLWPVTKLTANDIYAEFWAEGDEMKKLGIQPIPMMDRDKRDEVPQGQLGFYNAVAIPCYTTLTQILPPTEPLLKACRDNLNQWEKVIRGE
Experiment: mPDE10A7 enzyme inhibition (IMAP fluorescence polarization, fluorescein labeled cAMP or cGMP)
Assay type: biochemical
Protocol: mPDE10A7 Enzyme Activity and Inhibition
To analyze the enzyme activity, 5 μL of serial diluted mPDE10A7 containing lysate were incubated with equal volumes of diluted (100-fold) fluorescein labeled cAMP or cGMP for 30 minutes in MDC HE 96-well assay plates at room temperature. Both the enzyme and the substrates were diluted in the following assay buffer: Tris/HCl (pH 8.0) 50 mM, MgCl2 5 mM, 2-mercaptoethanol 4 mM, BSA 0.33 mg/mL. After incubation, the reaction was stopped by adding 20 μL of diluted (400-fold) binding reagents and was incubated for an hour at room temperature. The plates were counted in an Analyst GT (Molecular Devices) for fluorescence polarization. An IMAP Assay kit (Molecular Device) was used to assess enzyme properties of mmPDE10A7. Data were analyzed with SoftMax Pro.
To check the inhibition profile, 10 μL of serial diluted compounds were incubated with 30 μl of diluted PDE enzymes in a 96-well polystyrene assay plate for 30 minutes at room temperature. After incubation, 5 μL of the compound-enzyme mixture were aliquoted into a MDC HE black plate, mixed with 5 μl of 100-fold diluted fluorescein labeled substrates (cAMP or cGMP), and incubated for 30 minutes at room temperature. The reaction was stopped by adding 20 μL of diluted binding reagents and counted in an Analyst GT for fluorescence polarization. The data were analyzed with SoftMax Pro.

IC50: 219 nM
SMILES: COCCOc1cccc2c1CCN(c1ncnc3cc(OC)c(OC)cc13)C2=O [2-(6,7-dimethoxyquinazolin-4-yl)-5-(2-methoxyethoxy)-3,4-dihydroisoquinoline-1 (2H)-one]

Reference: US20070093515A1, “Phosphodiesterase 10 inhibitors” (priority 2005, published 2007)
